Reference: ChEMBL document CHEMBL4828769, “Discovery of AS-0141, a Potent and Selective Inhibitor of CDC7 Kinase for the Treatment of Solid Cancers” (J Med Chem, 2021)
The source made the active and inactive calls. The calls are words filed in the database; no cut-off is given here.

How the values were obtained:
[1] = Clearance in mouse at 1 mg/kg, iv; type: ADME, organism-based; settings: in vivo
[2] = biological target: T1, Cell division cycle 7-related protein kinase (Homo sapiens, UniProt O00311); assay: Reversible inhibition of human CDC7 assessed as off-rate preincubated for 50 mins followed by substrate addition in presence of ATP by rapid dilution assay
Target sequence in this assay (O00311 whole entry, looked up): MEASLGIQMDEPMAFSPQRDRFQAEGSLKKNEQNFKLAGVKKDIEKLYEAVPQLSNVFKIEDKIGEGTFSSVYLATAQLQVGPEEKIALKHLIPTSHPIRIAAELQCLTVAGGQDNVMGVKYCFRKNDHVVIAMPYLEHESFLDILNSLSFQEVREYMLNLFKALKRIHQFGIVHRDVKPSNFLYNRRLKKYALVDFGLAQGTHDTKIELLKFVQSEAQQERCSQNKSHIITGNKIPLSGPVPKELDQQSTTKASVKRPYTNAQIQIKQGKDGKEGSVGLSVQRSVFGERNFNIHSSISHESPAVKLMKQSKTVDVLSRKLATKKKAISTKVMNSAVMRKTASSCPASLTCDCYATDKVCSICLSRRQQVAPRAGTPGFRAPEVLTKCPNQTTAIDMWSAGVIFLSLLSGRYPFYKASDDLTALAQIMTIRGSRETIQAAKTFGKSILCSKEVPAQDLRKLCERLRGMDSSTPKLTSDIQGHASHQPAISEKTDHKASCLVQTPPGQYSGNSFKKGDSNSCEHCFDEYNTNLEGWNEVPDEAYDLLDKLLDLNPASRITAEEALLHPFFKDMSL

[3] = organism: Homo sapiens; assay: Selectivity index, ratio of IC50 for CLK2 (unknown origin) in presence of 1 mM ATP without preincubation to IC50 for CLK2 (unknown origin) in presence of 1 mM ATP with preincubation
[4] = biological target: T2, Serine/threonine-protein kinase pim-1 (Homo sapiens, UniProt P11309); assay: Inhibition of PIM1 (unknown origin) at 0.1 uM in presence of 1 mM ATP relative to control
Target sequence in this assay (P11309 whole entry, looked up): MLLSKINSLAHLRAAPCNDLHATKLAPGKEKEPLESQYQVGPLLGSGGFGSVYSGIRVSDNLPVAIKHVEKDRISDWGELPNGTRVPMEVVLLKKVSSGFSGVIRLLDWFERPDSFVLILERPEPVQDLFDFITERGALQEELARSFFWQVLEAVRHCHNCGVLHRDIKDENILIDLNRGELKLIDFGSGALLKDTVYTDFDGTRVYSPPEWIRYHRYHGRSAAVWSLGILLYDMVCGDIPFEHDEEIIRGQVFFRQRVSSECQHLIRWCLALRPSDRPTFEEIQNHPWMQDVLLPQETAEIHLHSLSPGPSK

[5] = AUC(0 to infinity) in mouse at 10 mg/kg, po; type: ADME, organism-based; design: time infinity, route oral, dose 10 mg/kg; settings: in vivo
[6] = system: SW-620; assay: Antitumor activity against human SW-620 cells xenografted in BALB/c nude mouse assessed as tumor growth inhibition at 60 mg/kg, po administered as 4 days on and 2 days off schedule for 21 days; type: functional; settings: SW-620, po, 504 h, time 21 day, read-out: TGI
[7] = MRT in dog at 1 mg/kg, iv; type: ADME, organism-based, Canis lupus familiaris; settings: in vivo
[8] = Inhibition of human CDC7/ASK using FITC-labelled MCM2 substrate in presence of 1 mM of ATP
[9] = Clearance in dog at 1 mg/kg, iv; type: ADME, organism-based, Canis lupus familiaris; settings: in vivo
[10] = Tmax in dog at 2 mg/kg, po; type: ADME, organism-based, Canis lupus familiaris; settings: in vivo
[11] = system: SW-620; assay: Induction of apoptosis in human SW-620 cells assessed as increase in gamma-H2AX level incubated for 48 hrs by Western blot analysis; type: functional, cell-based; settings: dose 0.03-1 µM
[12] = organism: Homo sapiens; assay: Selectivity index, ratio of IC50 for CLK1 (unknown origin) in presence of 1 mM ATP without preincubation to IC50 for CLK1 (unknown origin) in presence of 1 mM ATP with preincubation
[13] = Cmax in mouse at 1 mg/kg, iv; type: ADME, organism-based; design: route intravenous, dose 1 mg/kg; settings: in vivo
[14] = MRT in mouse at 1 mg/kg, iv; type: ADME, organism-based; settings: in vivo
[15] = Oral bioavailability in rat at 10 mg/kg; type: ADME, organism-based; settings: in vivo
[16] = biological target: T1, Cell division cycle 7-related protein kinase; assay: Inhibition of CDC7 in human COLO 205 cells assessed as reduction in phosphorylation of MCM2 at 1 uM preincubated for 48 hrs followed by compound washout measured after 24 hrs by Western blot analysis; type: cell-based
Target sequence in this assay (O00311 whole entry, looked up): as the sequence (O00311 whole entry, looked up) above

[17] = Half life in rat at 10 mg/kg, po; type: ADME, organism-based; settings: in vivo
[18] = Volume of distribution in dog at 1 mg/kg, iv; type: ADME, organism-based, Canis lupus familiaris; settings: in vivo
[19] = AUC(0 to infinity) in rat at 10 mg/kg, po; type: ADME, organism-based; design: time infinity, route oral, dose 10 mg/kg; settings: in vivo
[20] = Half life in rat at 2 mg/kg, iv; type: ADME, organism-based; settings: in vivo
[21] = system: SW-620; assay: Induction of apoptosis in human SW-620 cells assessed as increase in cleaved PARP level incubated for 48 hrs by Western blot analysis; type: functional, cell-based; settings: dose 0.03-1 µM
[22] = Protein binding in human plasma assessed as unbound fraction; type: ADME, cell-free
[23] = Half life in mouse at 10 mg/kg, po; type: ADME, organism-based; settings: in vivo
[24] = Volume of distribution in mouse at 1 mg/kg, iv; type: ADME, organism-based; settings: in vivo
[25] = organism: Homo sapiens; assay: Selectivity index, ratio of IC50 for PIM1 (unknown origin) in presence of 1 mM ATP without preincubation to IC50 for PIM1 (unknown origin) in presence of 1 mM ATP with preincubation
[26] = Cmax in dog at 1 mg/kg, iv; type: ADME, organism-based, Canis lupus familiaris; design: route intravenous, dose 1 mg/kg; settings: in vivo
[27] = Cmax in dog at 2 mg/kg, po; type: ADME, organism-based, Canis lupus familiaris; design: route oral, dose 2 mg/kg; settings: in vivo
[28] = AUC(0 to infinity) in dog at 1 mg/kg, iv; type: ADME, organism-based, Canis lupus familiaris; design: route intravenous, time infinity, dose 1 mg/kg; settings: in vivo
[29] = Half life in mouse at 1 mg/kg, iv; type: ADME, organism-based; settings: in vivo
[30] = MRT in rat at 2 mg/kg, iv; type: ADME, organism-based; settings: in vivo
[31] = biological target: Glycogen synthase kinase-3 alpha (Homo sapiens, UniProt P49840); assay: Inhibition of GSK3alpha (unknown origin) in presence of 1 mM ATP with preincubation
Chain of Glycogen synthase kinase-3 alpha (P49840 whole entry): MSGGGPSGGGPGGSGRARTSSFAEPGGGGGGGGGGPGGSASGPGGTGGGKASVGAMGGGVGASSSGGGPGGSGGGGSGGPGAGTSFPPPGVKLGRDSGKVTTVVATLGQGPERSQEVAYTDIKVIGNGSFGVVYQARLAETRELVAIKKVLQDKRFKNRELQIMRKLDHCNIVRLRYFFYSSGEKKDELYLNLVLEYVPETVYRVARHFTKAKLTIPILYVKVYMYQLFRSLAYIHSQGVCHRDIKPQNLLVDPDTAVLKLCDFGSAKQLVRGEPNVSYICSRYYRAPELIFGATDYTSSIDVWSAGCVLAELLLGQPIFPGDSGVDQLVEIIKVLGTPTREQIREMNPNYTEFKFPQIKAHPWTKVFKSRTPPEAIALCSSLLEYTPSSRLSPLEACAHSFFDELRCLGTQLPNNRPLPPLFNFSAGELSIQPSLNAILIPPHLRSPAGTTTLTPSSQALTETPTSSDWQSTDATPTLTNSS

[32] = Inhibition of human CDC7/ASK using FITC-labelled MCM2 substrate preincubated for 30 mins followed by substrate addition and measured after 5 hrs in presence of 1 mM of ATP
[33] = Cmax in rat at 2 mg/kg, iv; type: ADME, organism-based; design: route intravenous, dose 2 mg/kg; settings: in vivo
[34] = biological target: T1, Cell division cycle 7-related protein kinase; assay: Inhibition of CDC7 in human SW-620 cells assessed as reduction in phosphorylation of MCM2 at Ser53 residue incubated for 48 hrs by Western blot analysis; type: cell-based
[35] = biological target: T3, Dual specificity protein kinase CLK2 (Homo sapiens, UniProt P49760); assay: Inhibition of CLK2 (unknown origin) at 0.1 uM in presence of 1 mM ATP relative to control
Target sequence in this assay (P49760 whole entry, looked up): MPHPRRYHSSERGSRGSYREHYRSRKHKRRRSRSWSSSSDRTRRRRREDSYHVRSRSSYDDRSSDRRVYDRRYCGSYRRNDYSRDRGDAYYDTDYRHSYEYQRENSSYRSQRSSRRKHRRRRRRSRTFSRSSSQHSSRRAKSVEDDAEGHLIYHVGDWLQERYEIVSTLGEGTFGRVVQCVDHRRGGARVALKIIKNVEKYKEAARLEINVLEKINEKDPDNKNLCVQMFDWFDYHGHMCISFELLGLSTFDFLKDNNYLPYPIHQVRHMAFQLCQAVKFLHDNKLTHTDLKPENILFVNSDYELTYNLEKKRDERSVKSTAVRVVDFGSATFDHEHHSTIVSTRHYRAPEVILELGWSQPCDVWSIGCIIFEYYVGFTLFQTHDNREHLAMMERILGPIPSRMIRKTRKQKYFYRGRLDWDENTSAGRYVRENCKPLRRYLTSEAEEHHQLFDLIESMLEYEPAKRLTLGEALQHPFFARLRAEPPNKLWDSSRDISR

[36] = organism: Homo sapiens; assay: Selectivity index, ratio of IC50 for inhibition of human CDC7 in presence of 1 mM ATP without preincubation to IC50 for inhibition of human CDC7 using FITC-labelled MCM2 substrate preincubated for 30 mins followed by substrate addition and measured after 5 hrs in presence of 1 mM ATP
[37] = organism: Homo sapiens; assay: Selectivity index, ratio of IC50 for GSK3alpha (unknown origin) in presence of 1 mM ATP without preincubation to IC50 for GSK3alpha (unknown origin) in presence of 1 mM ATP with preincubation
[38] = AUC(0 to infinity) in mouse at 1 mg/kg, iv; type: ADME, organism-based; design: route intravenous, time infinity, dose 1 mg/kg; settings: in vivo
[39] = Tmax in mouse at 10 mg/kg, po; type: ADME, organism-based; settings: in vivo
[40] = biological target: T2, Serine/threonine-protein kinase pim-1; assay: Inhibition of PIM1 (unknown origin) in presence of 1 mM ATP with preincubation
Target sequence in this assay (P11309 whole entry): as the sequence (P11309 whole entry, looked up) above

[41] = biological target: T3, Dual specificity protein kinase CLK2; assay: Inhibition of CLK2 (unknown origin) in presence of 1 mM ATP with preincubation
Target sequence in this assay (P49760 whole entry): as the sequence (P49760 whole entry, looked up) above

[42] = Half life in dog at 2 mg/kg, po; type: ADME, organism-based, Canis lupus familiaris; settings: in vivo
[43] = biological target: Dual specificity protein kinase CLK1 (Homo sapiens, UniProt P49759); assay: Inhibition of CLK1 (unknown origin) in presence of 1 mM ATP without preincubation
Chain of Dual specificity protein kinase CLK1 (P49759 whole entry): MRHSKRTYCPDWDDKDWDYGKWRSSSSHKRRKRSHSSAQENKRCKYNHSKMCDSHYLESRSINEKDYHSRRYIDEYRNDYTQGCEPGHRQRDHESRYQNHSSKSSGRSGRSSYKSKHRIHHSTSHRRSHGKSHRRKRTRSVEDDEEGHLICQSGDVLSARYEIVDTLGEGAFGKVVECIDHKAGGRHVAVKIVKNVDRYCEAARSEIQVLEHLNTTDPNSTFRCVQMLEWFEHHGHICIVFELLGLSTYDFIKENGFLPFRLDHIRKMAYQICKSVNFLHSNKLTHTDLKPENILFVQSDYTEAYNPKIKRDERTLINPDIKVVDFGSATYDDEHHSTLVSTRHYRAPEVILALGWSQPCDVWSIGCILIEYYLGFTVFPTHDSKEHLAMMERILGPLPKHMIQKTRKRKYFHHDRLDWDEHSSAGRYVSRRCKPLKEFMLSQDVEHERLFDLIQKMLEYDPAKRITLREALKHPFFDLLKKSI

[44] = Clearance in rat at 2 mg/kg, iv; type: ADME, organism-based; settings: in vivo
[45] = Metabolic stability in rat liver microsomes assessed as parent compound remaining after 30 mins; type: ADME, Microsome; settings: read-out: Stability
[46] = biological target: T1, Cell division cycle 7-related protein kinase; assay: Inhibition of CDC7 in human SW-620 cells assessed as reduction in phosphorylation of MCM2 at Ser41 residue at 0.03 to 1 uM incubated for 48 hrs by Western blot analysis; type: cell-based; settings: dose 0.03-1 µM
Target sequence in this assay (O00311 whole entry, looked up): as the sequence (O00311 whole entry, looked up) above

[47] = In vivo inhibition of CDC7 in human SW-620 cells xenografted in BALB/c nude mouse assessed as reduction in phosphorylation of MCM2 at Ser53 residue at 120 mg/kg, po measured after 24 hrs; type: functional; settings: SW-620, po
[48] = system: SW-620; assay: Antitumor activity against human SW-620 cells xenografted in BALB/c nude mouse assessed as tumor growth inhibition at 120 mg/kg, po administered daily for 21 days; type: functional; settings: SW-620, po, 504 h, time 21 day, read-out: TGI

CCOC(=O)C1=C(NN2CCN(CC(F)(F)F)CC2)O/C(=C\c2c[nH]c3ncccc23)C1=O [MONZOSERTIB]
clearance [1]: 112 mL/min/kg
T1/2 [2]: 3.58 h
Ratio IC50 [3]: 1.2
inhibition [4]: > 30%
AUC(0-inf) [5]: 454 ng·h/mL
inhibition in vivo at 60 mg/kg [6]: 83%
MRT [7]: 5.26 h
IC50 [8]: 503 nM
clearance [9]: 13.5 mL/min/kg
Tmax [10]: 2.67 h
Activity [11]: Dose-Dependent Effect
Ratio IC50 [12]: 1
Cmax [13]: 408 ng/mL
MRT [14]: 0.3 h
bioavailability [15]: 54.4%
inhibition [16]: Active
half-life [17]: 6.1 h
Vd [18]: 4.22 L/kg
AUC(0-inf) [19]: 2410 ng·h/mL
half-life [20]: 3.01 h
Activity [21]: Dose-Dependent Effect
fraction unbound [22]: 0.088
half-life [23]: 1.45 h
Vd [24]: 3.1 L/kg
Ratio IC50 [25]: 0.9
Cmax [26]: 298 ng/mL
Cmax [27]: 96.1 ng/mL
AUC(0-inf) [28]: 1250 ng·h/mL
half-life [29]: 0.32 h
MRT [30]: 1.45 h
IC50 [31]: 251 nM
IC50 [32]: 2.4 nM
Cmax [33]: 1210 ng/mL
IC50 [34]: 53 nM
inhibition ([34]; dose 0.03-1 µM): Dose-Dependent Effect
inhibition [35]: > 30%
Ratio IC50 [36]: 210
Ratio IC50 [37]: 0.8
AUC(0-inf) [38]: 149 ng·h/mL
Tmax [39]: 4.98 min
IC50 [40]: 34 nM
IC50 [41]: 227 nM
half-life [42]: 4.19 h
IC50 [43]: 212 nM
clearance [44]: 37.7 mL/min/kg
remaining at 0.5 h [45]: 34.9%
inhibition [46]: inactive
inhibition in vivo at 120 mg/kg [47]: 36%
inhibition in vivo at 120 mg/kg [48]: 88%
